According to article PMC10248798, “Arabidopsis nicotianamine synthases comprise a common core-NAS domain fused to a variable autoinhibitory C terminus” (The Journal of Biological Chemistry, 2023):

Key:
Type in all cases: biochemical
[1] = molecular target: T1, MtnN (Escherichia coli, UniProt P0AF12); experiment: TLC; conditions: 2.5 mM MTA, 50 mM Tris/HCl pH 8.7, 30 °C
T1 construct: full length, C-terminal His6 tag (pET-21b), Ni-NTA purified from E. coli

[2] = molecular target: T2, AdeD (Escherichia coli, UniProt P31441); experiment: TLC; conditions: 3 mM adenine, 50 mM Tris/HCl pH 8.7, 30 °C
T2 construct: gene ade; full length, C-terminal His6 tag (pET-21b), Ni-NTA purified from E. coli

[3] = molecular target: T3, MetK (Escherichia coli, UniProt P0A817); experiment: one-pot coupled synthesis of nicotianamine with MtnN and AtNAS1; conditions: coupled to AtNAS1 and MtnN
T3 construct: full length, C-terminal His6 tag (pET-21b), Ni-NTA purified from E. coli
T3 sequence (P0A817 2-384): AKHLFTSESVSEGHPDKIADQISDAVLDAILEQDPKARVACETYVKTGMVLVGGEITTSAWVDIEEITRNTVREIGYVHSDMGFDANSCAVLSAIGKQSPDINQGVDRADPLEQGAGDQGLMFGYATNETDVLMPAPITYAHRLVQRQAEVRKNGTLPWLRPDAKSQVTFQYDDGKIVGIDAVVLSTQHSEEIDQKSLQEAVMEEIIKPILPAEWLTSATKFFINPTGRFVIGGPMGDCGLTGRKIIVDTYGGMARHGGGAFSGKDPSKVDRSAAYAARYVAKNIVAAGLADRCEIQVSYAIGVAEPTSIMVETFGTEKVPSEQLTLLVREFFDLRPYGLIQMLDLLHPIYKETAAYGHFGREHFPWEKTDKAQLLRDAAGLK

[4] = molecular target: T4, AtNAS3 ΔC42 (Arabidopsis thaliana, UniProt O80483); experiment: coupled spectrophotometric assay (MtnN/AdeD, A265); conditions: 0.125 mM SAM, 50 mM Tris-HCl pH 8.7, 37 °C
T4 construct: gene NAS3; core-NAS domain, 42 C-terminal residues removed, C-terminal His6 tag (pET-21b, NheI/NotI), E. coli
T4 sequence (O80483 1-278): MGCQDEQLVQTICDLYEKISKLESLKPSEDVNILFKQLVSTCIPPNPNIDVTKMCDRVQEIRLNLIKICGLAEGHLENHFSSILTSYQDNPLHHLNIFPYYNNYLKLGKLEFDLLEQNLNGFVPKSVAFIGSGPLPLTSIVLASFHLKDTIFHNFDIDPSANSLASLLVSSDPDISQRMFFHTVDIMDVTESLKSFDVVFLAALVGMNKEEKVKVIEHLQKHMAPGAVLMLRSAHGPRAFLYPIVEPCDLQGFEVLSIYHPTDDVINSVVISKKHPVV

[5] = molecular target: T5, AtNAS4 ΔC47 (Arabidopsis thaliana, UniProt Q9C7X5); experiment: coupled spectrophotometric assay (MtnN/AdeD, A265); conditions: 0.125 mM SAM, 50 mM Tris-HCl pH 8.7, 37 °C
T5 construct: gene NAS4; core-NAS domain, 47 C-terminal residues removed, C-terminal His6 tag (pET-21b), E. coli
T5 sequence (Q9C7X5 1-277): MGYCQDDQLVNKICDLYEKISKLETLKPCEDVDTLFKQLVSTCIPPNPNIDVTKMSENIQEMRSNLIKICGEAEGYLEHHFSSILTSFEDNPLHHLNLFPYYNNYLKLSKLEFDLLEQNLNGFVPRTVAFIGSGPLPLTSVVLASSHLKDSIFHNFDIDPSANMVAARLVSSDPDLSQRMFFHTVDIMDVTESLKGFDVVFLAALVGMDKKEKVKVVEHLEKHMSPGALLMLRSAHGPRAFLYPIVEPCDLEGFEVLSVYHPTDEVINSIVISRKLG

T1 sequence (P0AF12 whole entry): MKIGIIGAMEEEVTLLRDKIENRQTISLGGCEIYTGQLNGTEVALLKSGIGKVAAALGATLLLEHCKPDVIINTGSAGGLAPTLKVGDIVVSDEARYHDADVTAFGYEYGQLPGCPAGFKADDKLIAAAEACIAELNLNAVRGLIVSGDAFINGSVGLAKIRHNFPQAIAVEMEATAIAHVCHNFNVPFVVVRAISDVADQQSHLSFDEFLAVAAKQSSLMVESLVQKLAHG
T2 sequence (P31441 whole entry): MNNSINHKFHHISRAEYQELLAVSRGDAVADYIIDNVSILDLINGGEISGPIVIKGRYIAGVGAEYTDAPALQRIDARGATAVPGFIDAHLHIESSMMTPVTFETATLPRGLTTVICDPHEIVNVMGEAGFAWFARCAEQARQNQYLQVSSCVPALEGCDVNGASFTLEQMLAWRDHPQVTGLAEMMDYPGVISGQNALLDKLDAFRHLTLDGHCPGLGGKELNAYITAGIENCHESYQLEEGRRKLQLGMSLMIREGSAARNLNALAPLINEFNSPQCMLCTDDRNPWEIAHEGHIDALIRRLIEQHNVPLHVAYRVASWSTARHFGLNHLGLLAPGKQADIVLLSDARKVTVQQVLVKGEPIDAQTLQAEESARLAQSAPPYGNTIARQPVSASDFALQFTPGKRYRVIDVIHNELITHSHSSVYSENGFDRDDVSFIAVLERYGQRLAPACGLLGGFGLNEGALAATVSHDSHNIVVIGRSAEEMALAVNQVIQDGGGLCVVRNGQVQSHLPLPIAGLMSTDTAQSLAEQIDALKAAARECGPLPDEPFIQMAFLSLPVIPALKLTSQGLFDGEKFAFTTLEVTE

SMILES: CSC[C@H]1O[C@@H](n2cnc3c(N)ncnc32)[C@H](O)[C@@H]1O [MTA]
- TLC [1]: MtnN- and AdeD, were active in NAS reaction buffer when assayed individually with their respective substrates

SMILES: Nc1ncnc2[nH]cnc12 [adenine]
- TLC [2]: MtnN- and AdeD, were active in NAS reaction buffer when assayed individually with their respective substrates

SMILES: CSCC[C@H](N)C(=O)O [L-methionine]
- one-pot coupled synthesis of nicotianamine with MtnN and AtNAS1 ([3]; co-substrate ATP): we combined MetK with MtnN and AtNAS1 for the one-pot synthesis of NA from ATP

SMILES: C[S+](CC[C@H](N)C(=O)O)C[C@H]1O[C@@H](n2cnc3c(N)ncnc32)[C@H](O)[C@@H]1O (stereo partly drawn) [SAM]
- coupled spectrophotometric assay (MtnN/AdeD, A265) [4]: The truncated variants of AtNAS3 and AtNAS4 also showed strongly increased activities
- coupled spectrophotometric assay (MtnN/AdeD, A265) [5]: The truncated variants of AtNAS3 and AtNAS4 also showed strongly increased activities

SMILES: Nc1ncnc2c1ncn2[C@@H]1O[C@H](COP(=O)(O)OP(=O)(O)OP(=O)(O)O)[C@@H](O)[C@H]1O [ATP]
- one-pot coupled synthesis of nicotianamine with MtnN and AtNAS1 ([3]; co-substrate L-methionine): we combined MetK with MtnN and AtNAS1 for the one-pot synthesis of NA from ATP
